One data set deals with cynomolgus monkeys. In words: Intraocular pressure in cynomolgus monkeys. Conditions: monkey, 0.03% topical, single dose, 2-24 h. The class given is in vivo. On the procedure: (§1) Intraocular pressure studies in dogs involved pneumatonometry performed in conscious, Beagle dogs of both sexes (10–15 kg). The animals remained conscious throughout the study and were gently restrained by hand. Drugs were administered topically to one eye as a 25 μL volume drop, the other eye received 25 μL vehicle (0.1% polysorbate 80:10 mM TRIS) as a control. Proparacaine (0.1%) was used for corneal anesthesia during tonometry.
An analogous procedure was carried out with cynomolgus monkeys with measurements at 2, 4, 6, and 24 hours after a single dose.

Data set [1] relates to Beagle dogs. The data set can be described thus: Ocular surface hyperemia in dogs. The class given is in vivo. The settings on record: dog, 0.03% topical; score 0.5 trace, 1 mild, 2 moderate, 3 severe. On the procedure: Ocular surface hyperemia was visually assessed and scored according to a system typically used clinically.
Ocular surface hyperemia was evaluated at the same time points as intraocular pressure measurement. It should be noted that untreated dog eyes frequently have a pink/red tone. Thus, values of trace or even mild are not necessarily out of the normal range.

For data set [2], the system named is Beagle dogs. The data set can be described thus: Intraocular pressure in dogs (pneumatonometry). The class given is in vivo. The settings on record: dog, 0.03% topical 25 μL drop to one eye, 5 day study. On the procedure: as §1
Intraocular pressure was determined just before drug administration and at 2, 4 and 6 hr thereafter on each day of the 5 day study. Drug was administered immediately after the first IOP reading.

The target of another data set is T1, HEP2 (Homo sapiens, UniProt P43116).
T1 construct: expressed in transfected cells; membrane fraction
In words: Radioligand binding, EP2 receptor. Conditions: competition vs [3H]PGE2 5 nM, HEK-293 cell membranes. On the procedure: (§2) HEK-293 cells stably expressing the human or feline FP receptor, or EP1, EP2, or EP4 receptors were washed with TME buffer, scraped from the bottom of the flasks, and homogenized for 30 sec using a Brinkman PT 10/35 polytron. TME buffer was added to achieve a final 40 ml volume in the centrifuge tubes (the composition of TME is 100 mM TRIS base, 20 mM MgCl2, […]; 10N HCl is added to achieve a pH of 7.4).
(§3) The cell homogenate was centrifuged at 19000 r.p.m. for 20 min at 4° C. using a Beckman Ti-60 rotor. The resultant pellet was resuspended in TME buffer to give a final 1 mg/ml protein concentration, as determined by Biorad assay. Radioligand binding competition assays vs. [^3H-]17-phenyl PGF2α (5 nM) were performed in a 100 μl volume for 60 min. Binding reactions were started by adding plasma membrane fraction. The reaction was terminated by the addition of 4 ml ice-cold TRIS-HCl buffer and rapid filtration through glass fiber GF/B filters using a Brandel cell harvester. The filters were washed 3 times with ice-cold buffer and oven dried for one hour. Non-specific binding was determined with 10 uM unlabeled 17-phenyl PGF2α.
(§4) [^3H-] PGE2 (5 nM; specific activity 180 Ci mmol) was used as the radioligand for EP receptors. […] Non-specific binding determined with 10^−5M of unlabeled PGE2.

A further data set deals with T2, HEP4 (Homo sapiens, UniProt P35408).
T2 construct: expressed in transfected cells; membrane fraction
The data set can be described thus: Radioligand binding, EP4 receptor. Conditions: competition vs [3H]PGE2 5 nM, HEK-293 cell membranes. On the procedure:
as §2, §3
[^3H-] PGE2 (5 nM; specific activity 180 Ci mmol) was used as the radioligand for EP receptors. Binding studies employing EP1, EP2, EP3, EP4 were performed in duplicate in at least three separate experiments. A 200 μl assay volume was used. Incubations were for 60 min at 25° C. and were terminated by the addition of 4 ml of ice-cold 50 mM TRIS-HCl, followed by rapid filtration through Whatman GF/B filters and three additional 4 ml washes in a cell harvester (Brandel). Non-specific binding determined with 10^−5M of unlabeled PGE2.

The target in another data set is T3, hEP4/Gqs5 (Homo sapiens, UniProt P35408).
T3 construct: expressed in transfected cells
The data set can be described thus: FLIPR calcium signal, hEP4/Gqs5. The class given is cell-based. Conditions: HEK-293(EBNA) cells, read-out: Functional EC50 (nM) HEP4. On the procedure:
HEK-293(EBNA) cells, stably expressing one type or subtype of recombinant human prostaglandin receptors (prostaglandin receptors expressed: hDP/Gqs5; hEP1; hEP2/Gqs5; hEP3A/Gqi5; hEP4/Gqs5; hFP; hIP; hTP), were cultured in 100 mm culture dishes in high-glucose DMEM medium containing 10% fetal bovine serum, 2 mM 1-glutamine, 250 μg/ml geneticin (G418) and 200 μg/ml hygromycin B as selection markers, and 100 units/ml penicillin G, 100 μg/ml streptomycin and 0.25 μg/ml amphotericin B.
Cells were seeded at a density of 5×10^4 cells per well in Biocoat® Poly-D-lysine-coated black-wall, clear-bottom 96-well plates (Becton-Dickinson) and allowed to attach overnight in an incubator at 37° C. Cells were then washed two times with HBSS-HEPES buffer (Hanks Balanced Salt Solution without bicarbonate and phenol red, 20 mM HEPES, pH 7.4) using a Denley Cellwash plate washer (Labsystems). After 45 minutes of dye-loading in the dark, using the calcium-sensitive dye Fluo-4 AM at a final concentration of 2 μM, plates were washed four times with HBSS-HEPES buffer to remove excess dye leaving 100 μl in each well. Plates were re-equilibrated to 37° C. for a few minutes.
Cells were excited with an Argon laser at 488 nm, and emission was measured through a 510–570 nm bandwidth emission filter (FLIPR™, Molecular Devices, Sunnyvale, Calif.). Drug solution was added in a 50 μl volume to each well to give the desired final concentration. The peak increase in fluorescence intensity was recorded for each well. On each plate, four wells each served as negative (HBSS-HEPES buffer) and positive controls (standard agonists: BW245C (hDP); PGE2 (hEP1; hEP2/Gqs5; hEP3A/Gqi5; hEP4/Gqs5); PGF2α (hFP); carbacyclin (hIP); U-46619 (hTP), depending on receptor). The peak fluorescence change in each drug-containing well was then expressed relative to the controls.
Compounds were tested in a high-throughput (HTS) or concentration-response (CoRe) format. In the HTS format, forty-four compounds per plate were examined in duplicates at a concentration of 10^−5 M. To generate concentration-response curves, four compounds per plate were tested in duplicates in a concentration range between 10^−5 and 10^−11 M. The duplicate values were averaged. In either, HTS or CoRe format each compound was tested on at least 3 separate plates using cells from different passages to give an n≧3.

A further data set addresses T4, HEP3D (Homo sapiens, UniProt P43115).
T4 sequence (P43115 1-374 isoform P43115-4): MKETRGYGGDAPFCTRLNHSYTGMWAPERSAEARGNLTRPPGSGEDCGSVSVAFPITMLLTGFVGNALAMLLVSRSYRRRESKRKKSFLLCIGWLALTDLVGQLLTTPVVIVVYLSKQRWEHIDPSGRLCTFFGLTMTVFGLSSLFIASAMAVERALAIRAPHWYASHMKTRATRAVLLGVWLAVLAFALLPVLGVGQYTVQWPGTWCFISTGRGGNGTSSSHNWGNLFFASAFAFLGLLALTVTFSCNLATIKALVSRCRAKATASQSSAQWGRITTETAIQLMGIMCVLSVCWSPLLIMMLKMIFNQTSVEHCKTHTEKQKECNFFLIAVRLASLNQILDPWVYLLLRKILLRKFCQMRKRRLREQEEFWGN
In words: Radioligand binding, EP3 receptor. Conditions: competition vs [3H]PGE2 5 nM. On the procedure: as §2, §3, §4

T2 sequence (P35408 whole entry): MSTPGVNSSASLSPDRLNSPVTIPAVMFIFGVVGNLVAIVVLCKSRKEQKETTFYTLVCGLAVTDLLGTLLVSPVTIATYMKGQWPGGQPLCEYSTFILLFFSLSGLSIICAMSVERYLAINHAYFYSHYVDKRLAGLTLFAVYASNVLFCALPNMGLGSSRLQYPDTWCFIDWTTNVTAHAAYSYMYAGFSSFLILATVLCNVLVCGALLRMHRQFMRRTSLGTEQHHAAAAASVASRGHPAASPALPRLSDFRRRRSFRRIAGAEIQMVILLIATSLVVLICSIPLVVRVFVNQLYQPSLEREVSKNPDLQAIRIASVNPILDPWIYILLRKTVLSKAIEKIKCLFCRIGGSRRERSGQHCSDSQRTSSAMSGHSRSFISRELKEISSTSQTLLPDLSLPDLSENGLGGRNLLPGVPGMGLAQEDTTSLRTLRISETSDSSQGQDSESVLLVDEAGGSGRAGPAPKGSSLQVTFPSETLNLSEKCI
T3 sequence (P35408 whole entry): as above
T1 sequence (P43116 whole entry): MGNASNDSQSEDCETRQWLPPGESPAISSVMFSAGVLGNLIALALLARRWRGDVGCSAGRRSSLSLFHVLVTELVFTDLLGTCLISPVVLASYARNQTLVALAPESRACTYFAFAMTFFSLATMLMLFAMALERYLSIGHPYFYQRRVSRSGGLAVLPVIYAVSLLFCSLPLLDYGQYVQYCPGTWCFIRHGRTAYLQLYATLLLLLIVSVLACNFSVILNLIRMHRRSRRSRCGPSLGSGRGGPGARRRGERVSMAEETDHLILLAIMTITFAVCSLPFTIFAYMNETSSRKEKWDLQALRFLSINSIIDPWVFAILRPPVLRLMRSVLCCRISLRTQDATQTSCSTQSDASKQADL

Consider `CC(C)OC(=O)CCC/C=C\C[C@H]1C(=O)CC[C@@H]1/C=C/C(O)CCc1sc2ccccc2c1Cl` (single isomer, unassigned) [Compound 16b], for which the “Max. ΔIOP (mm Hg)” value in the data set with cynomolgus monkeys is reported as −3.4 mm Hg; in the data set with Beagle dogs [2], −5.7 mm Hg. For the same compound, in the data set on Beagle dogs [1], the Max hyperemia is 0.9.

With `CC(C)OC(=O)CCC/C=C\C[C@H]1C(=O)CC[C@@H]1/C=C/C(O)CCc1sc2ccccc2c1Cl` (single isomer, unassigned) [Compound 16c], the “Max. ΔIOP (mm Hg)” value in the data set on cynomolgus monkeys was −7.8 mm Hg; in the data set on Beagle dogs [2], −4.8 mm Hg. Also, in the data set on Beagle dogs [1], the Max hyperemia was found to be 1.0.

As usually defined, the IC50 is the concentration needed to halve the response being measured. Read a high IC50 as a need for much substance. A word on the EC50: it is the midpoint of the concentration-response curve. As for `O=C(O)CCC/C=C\C[C@H]1C(=O)CC[C@@H]1/C=C/C(O)CCc1sc2ccccc2c1Cl` (stereo partly shown) [drawing 40], the values for the IC50 at HEP2, at HEP4 and on HEP3D were more than 10000 nM, 150 nM and 6000 nM, respectively. In addition, at hEP4/Gqs5, the EC50 stood at 11 nM.

(Values after patent US7101906B2, “2,3,4-substituted cyclopentanones as therapeutic agents” (Allergan, Inc., priority 2004, dated 2006).)
